This is an account of results in EP4043466B1, “PRC2 INHIBITORS” (Mirati Therapeutics, Inc., priority 2018, dated 2019).

Test [1] has as its target purified human, His-tagged PRC2 complex (Homo sapiens, UniProt O75530+Q15910). Briefly: Hot Spot HMT assay: inhibition of PRC2 enzymatic activity (transfer of tritiated methyl from SAM to core histone, filter binding). The format is biochemical. The conditions noted are these: Inhibition of PRC2-mediated enzymatic activity; 10 nM PRC2 complex, 0.05 mg/ml core histone H3, 1 uM 3H-SAM, 1 hr at 30°C. A digest of the protocol:
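Five-subunit complex (His-EZH2, Flag-EED, His-SUZ12, His-AEBP2, His-RbAp48) at 10 nM with 0.05 mg/ml core histone H3, pH 8 Tris buffer, 1% DMSO; 20 min compound pre-incubation at 30°C. Started with 1 uM [3H]-SAM, 1 hr at 30°C; tritiated H3 counted by scintillation. Compounds diluted from 1.0 µM top concentration.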

Test [2] relates to PRC2-mediated histone H3 methylation. Briefly: Tri-Methyl Histone H3 (Lys 27) Sandwich ELISA in Pfeiffer cells: inhibition of PRC2-mediated histone H3 methylation. Particulars: Homo sapiens; Inhibition of EZH2-mediated histone H3 trimethylation; Pfeiffer cells (EZH2 A677G), 96 hours incubation. The format is cell-based, human. A digest of the protocol:
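Pfeiffer DLBCL cells (EZH2 A677G mutant) treated with 3-fold serial dilutions, 1µM to 0.15 nM final, for 96 hours at 37°C. Acid (0.4M HCl) histone extracts, neutralized, assayed by H3K27me3 sandwich ELISA with HRP/TMB read at 450 nm.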
On the technique in general: In an ELISA, binding on a coated surface is turned into a signal by an enzyme label.

Test [3] deals with Karpas 422 cells. Briefly: Karpas 422 cell viability, CTG (Cell Titre Glo) assay. Particulars: Homo sapiens; Inhibition of proliferation of Karpas 422 cells (EZH2 Y641N); viability measured Day 4, Day 7 or Day 11, time point of the tabulated values not stated. The format is cell-based, human. A digest of the protocol: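 Karpas 422 cells (EZH2 Y641N, DLBCL) plated at 1000 cells/well in RPMI with 20% FBS, exposed to compound 10µM down to 1.5nM in 3-fold steps at 37 °C. Viability by CellTiter-Glo on Days 4, 7 and 11; Day 11 plates re-fed with fresh medium and compound on Day 7. IC50 per time point.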

Chain of purified human, His-tagged PRC2 complex (Q15910 whole entry): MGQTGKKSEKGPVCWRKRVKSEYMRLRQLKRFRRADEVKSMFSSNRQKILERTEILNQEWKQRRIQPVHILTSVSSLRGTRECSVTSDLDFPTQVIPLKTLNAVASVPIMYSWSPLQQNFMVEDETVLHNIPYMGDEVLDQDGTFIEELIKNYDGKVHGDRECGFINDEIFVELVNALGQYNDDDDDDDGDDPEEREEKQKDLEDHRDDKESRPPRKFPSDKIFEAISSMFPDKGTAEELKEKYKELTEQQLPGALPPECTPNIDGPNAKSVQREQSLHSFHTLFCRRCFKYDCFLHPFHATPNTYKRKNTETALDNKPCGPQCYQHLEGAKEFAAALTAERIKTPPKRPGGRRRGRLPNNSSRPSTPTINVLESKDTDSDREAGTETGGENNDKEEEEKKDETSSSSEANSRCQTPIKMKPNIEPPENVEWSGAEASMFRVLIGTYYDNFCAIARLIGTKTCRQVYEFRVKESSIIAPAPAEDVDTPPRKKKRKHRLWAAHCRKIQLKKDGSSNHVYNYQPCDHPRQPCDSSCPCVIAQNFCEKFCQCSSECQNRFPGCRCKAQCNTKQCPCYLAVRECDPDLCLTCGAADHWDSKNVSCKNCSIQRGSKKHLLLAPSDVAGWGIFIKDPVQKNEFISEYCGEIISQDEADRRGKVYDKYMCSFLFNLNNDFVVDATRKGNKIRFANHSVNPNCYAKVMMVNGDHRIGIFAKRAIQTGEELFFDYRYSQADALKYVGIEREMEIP
Chain of purified human, His-tagged PRC2 complex (O75530 whole entry): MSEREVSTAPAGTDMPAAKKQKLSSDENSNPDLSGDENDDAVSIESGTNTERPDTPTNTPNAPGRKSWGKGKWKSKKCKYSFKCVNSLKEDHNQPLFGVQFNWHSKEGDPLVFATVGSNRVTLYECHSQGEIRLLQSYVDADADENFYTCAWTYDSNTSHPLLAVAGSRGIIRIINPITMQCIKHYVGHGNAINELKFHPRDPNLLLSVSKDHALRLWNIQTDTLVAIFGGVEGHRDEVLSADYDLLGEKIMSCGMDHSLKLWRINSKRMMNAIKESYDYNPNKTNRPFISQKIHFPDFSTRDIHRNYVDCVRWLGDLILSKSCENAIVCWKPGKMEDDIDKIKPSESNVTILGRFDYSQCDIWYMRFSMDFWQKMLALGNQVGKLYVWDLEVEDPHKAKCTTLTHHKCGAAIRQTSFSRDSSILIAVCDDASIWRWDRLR
Chain of purified human, His-tagged PRC2 complex (Q15022 whole entry partner): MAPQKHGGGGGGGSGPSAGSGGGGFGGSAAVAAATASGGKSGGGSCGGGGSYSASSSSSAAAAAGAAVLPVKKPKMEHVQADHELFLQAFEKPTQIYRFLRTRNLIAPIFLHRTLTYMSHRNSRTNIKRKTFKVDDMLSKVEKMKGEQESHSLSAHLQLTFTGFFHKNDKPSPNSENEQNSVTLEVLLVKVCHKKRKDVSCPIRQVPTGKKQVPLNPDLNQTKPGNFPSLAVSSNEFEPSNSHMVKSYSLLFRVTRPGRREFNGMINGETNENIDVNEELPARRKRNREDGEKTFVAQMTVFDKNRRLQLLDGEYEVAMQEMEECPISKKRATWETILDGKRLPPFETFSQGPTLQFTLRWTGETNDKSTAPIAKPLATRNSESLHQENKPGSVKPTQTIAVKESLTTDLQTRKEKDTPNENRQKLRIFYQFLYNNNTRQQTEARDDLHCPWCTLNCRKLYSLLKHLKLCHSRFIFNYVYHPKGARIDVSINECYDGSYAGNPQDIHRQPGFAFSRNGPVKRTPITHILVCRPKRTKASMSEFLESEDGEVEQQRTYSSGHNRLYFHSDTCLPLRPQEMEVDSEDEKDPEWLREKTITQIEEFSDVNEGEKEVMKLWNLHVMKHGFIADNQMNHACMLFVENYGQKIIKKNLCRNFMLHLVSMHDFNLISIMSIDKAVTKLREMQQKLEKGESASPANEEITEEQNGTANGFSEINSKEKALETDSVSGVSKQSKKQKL
Chain of purified human, His-tagged PRC2 complex (Q6ZN18 whole entry partner): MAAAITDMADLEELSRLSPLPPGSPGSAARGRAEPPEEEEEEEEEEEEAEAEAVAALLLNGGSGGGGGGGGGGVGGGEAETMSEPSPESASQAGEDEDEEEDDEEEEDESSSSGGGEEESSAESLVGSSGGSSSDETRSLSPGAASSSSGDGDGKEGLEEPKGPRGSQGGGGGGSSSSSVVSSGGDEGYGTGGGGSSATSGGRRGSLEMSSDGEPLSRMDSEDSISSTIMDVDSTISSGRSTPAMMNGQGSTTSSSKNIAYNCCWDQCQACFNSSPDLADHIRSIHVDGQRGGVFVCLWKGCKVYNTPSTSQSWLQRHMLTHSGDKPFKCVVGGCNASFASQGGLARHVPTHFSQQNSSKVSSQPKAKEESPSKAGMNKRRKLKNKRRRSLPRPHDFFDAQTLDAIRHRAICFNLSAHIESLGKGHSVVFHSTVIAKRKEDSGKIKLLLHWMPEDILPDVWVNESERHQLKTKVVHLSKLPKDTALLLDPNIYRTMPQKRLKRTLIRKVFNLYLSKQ
Chain of purified human, His-tagged PRC2 complex (Q09028 whole entry partner): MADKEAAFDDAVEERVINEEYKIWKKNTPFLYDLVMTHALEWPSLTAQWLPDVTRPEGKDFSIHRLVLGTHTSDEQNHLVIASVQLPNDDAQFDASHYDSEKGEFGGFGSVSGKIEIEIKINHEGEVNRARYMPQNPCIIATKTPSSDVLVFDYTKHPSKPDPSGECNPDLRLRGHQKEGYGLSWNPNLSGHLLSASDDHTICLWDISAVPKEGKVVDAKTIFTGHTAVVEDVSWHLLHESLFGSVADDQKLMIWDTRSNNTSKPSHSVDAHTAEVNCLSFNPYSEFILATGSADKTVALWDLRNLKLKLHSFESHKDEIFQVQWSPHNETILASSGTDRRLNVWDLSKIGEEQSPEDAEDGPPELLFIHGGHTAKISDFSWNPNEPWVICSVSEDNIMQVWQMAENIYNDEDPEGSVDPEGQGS

In general, IC50 refers to the concentration at which inhibition is half-maximal. Higher therefore signals weaker potency. Regarding `CN1CCOCC1c1ccc(-c2cnc(NCc3c(F)ccc4c3CCO4)n3cc(C#N)nc23)cc1` (stereo not drawn) [Example 227, 5-(((5-fluoro-2,3-dihydrobenzofuran-4-yl)methyl)amino)-8-(4-(4-methylmorpholin-3-yl)phenyl)imidazo[1,2-c]pyrimidine-2-carbonitrile], the IC50 in test [1] is less than 100 nM; in test [2], 100 to 500 nM; in test [3], no more than 250 nM.
Turning to `CN1CCN(C(=O)c2cc(-c3cnc(NCc4c(F)ccc5c4CCO5)n4cc(C#N)nc34)n(C)n2)CC1` [Example 229, 5-(((5-fluoro-2,3-dihydrobenzofuran-4-yl)methyl)amino)-8-(1-methyl-3-(4-methylpiperazine-1-carbonyl)-1H-pyrazol-5-yl)imidazo[1,2-c]pyrimidine-2-carbonitrile], the IC50 in test [1] is less than 100 nM; in test [2], no more than 100 nM; in test [3], no more than 250 nM.
On to `CN(C)CCn1nccc1-c1cnc(NCc2c(F)ccc3c2CCO3)n2cc(C#N)nc12` [Example 230, 8-(1-(2-(dimethylamino)ethyl)-1H-pyrazol-5-yl)-5-(((5-fluoro-2,3-dihydrobenzofuran-4-yl)methyl)amino)imidazo[1,2-c]pyrimidine-2-carbonitrile], for which the IC50 in test [1] is less than 100 nM; in test [2], no more than 100 nM; in test [3], no more than 250 nM.
Regarding `Cc1c(-c2cnc(NCc3c(F)ccc4c3CCO4)n3cc(C#N)nc23)cnc(CN(C)C)c1F` [Example 233, 8-(6-((dimethylamino)methyl)-5-fluoro-4-methylpyridin-3-yl)-5-(((5-fluoro-2,3-dihydrobenzofuran-4-yl)methyl)amino)imidazo[1,2-c]pyrimidine-2-carbonitrile], the IC50 in test [1] was less than 100 nM; in test [2], no more than 100 nM; in test [3], no more than 250 nM.
In the case of `N#Cc1cn2c(NCc3c(F)ccc4c3CCO4)ncc(-c3cnn(CC4CCOC4)c3)c2n1` (stereo not drawn) [compound 154], the IC50 in test [1] was in the range of 100 to 500 nM; in test [2], 100 to 500 nM; in test [3] it was 250 to 500 nM.
